# Results as given in publication PMC12045974, “T cell toxicity induced by tigecycline binding to the mitochondrial ribosome” (Nature Communications, 2025).
# “And” between values parts separate entries of the source, which are not always exact repeats. Equal values may be shown once. Read-outs that look alike come from different tables or passages of the source.
# Columns and labels:
# [1] = tested on: mitochondrial translation; assay: 35S metabolic labeling, de novo mitochondrial translation assay in Jurkat T cells; type: cell-based, human; conditions: 5 μM, 18 h of treatment
# Protocol: Jurkat T cells were seeded in 6-well plates at a density of 1 million cells/ml and cultured with different concentrations of antibiotics for 18 h in RPMI-1640 medium (with 10% FBS, 2.05 mM L-glutamine (Sigma), and 55 μM 2-ME (Gibco)). After centrifugation, cells were incubated twice for 5 min at 37 °C in Cys-/Met-free medium (DMEM, high glucose, no glutamine, no methionine, no cysteine, supplemented with 10% dialyzed fetal bovine serum, 1× GlutaMax, and sodium pyruvate), followed by 20 min incubation at 37 °C in Cys-/Met-free medium supplemented with 100 µg/ml emetine to inhibit cytosolic translation (only for mitochondrial translation groups). Subsequently, 1 ml Cys-/Met-free medium supplemented with 200 (for cytosolic translation) or 400 µCi (for mitochondrial translation) of EasyTag EXPRESS [^35S] protein labeling mix (methionine and cysteine) (Perkin Elmer) were added to each sample and incubated for 20 min at 37 °C, 5% CO2. Following labeling, cells were washed three times with 1 ml PBS, harvested by centrifugation (400 × g, 10 min, 4 °C), and stored at −20 °C. Cells were lysed by resuspension in 30 µl PBS supplemented with a Complete EDTA-free protease inhibitor cocktail and 50 U Benzonase nuclease (Sigma) and by application of one freeze-thaw cycle. Protein contents were determined by Pierce BCA assay (Thermo Fisher). […]
# [2] = tested on: PBMCs; assay: Cell viability assay (CCK-8), PBMCs; type: cell-based, human; conditions: 72 h
# Method in brief: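 Buffy-coat PBMCs were seeded at 15,000 cells/well in RPMI-1640 with 10% FBS, 2.05 mM L-glutamine and 55 μM 2-ME. Cells were exposed for 72 h at 37 °C, 5% CO2 to 9 concentrations, up to 300 μM for tetracyclines and up to 900 μM for other inhibitors, with DMSO controls. CCK-8 read after 4 h; IC50 from dose-response curves.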
# [3] = tested on: HeLa cells; assay: Cell viability assay (CCK-8), HeLa cells; type: cell-based; conditions: 10 μM
# Method in brief: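 Viability of HeLa cells was measured with Cell Counting Kit-8 after treatment with drug dilutions in 96-well plates (2000 cells/well, DMEM plus 10% FBS and 2.05 mM L-glutamine, humidified 37 °C, 5% CO2). Untreated wells received equal DMSO. After 1 h CCK-8 incubation, technical-repeat dose-response curves were plotted and IC50 values calculated in GraphPad Prism.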
# [4] = tested on: Jurkat T cells; assay: Cell viability assay (CCK-8), Jurkat T cells; type: cell-based, human; conditions: 72 h; for cell vialibity normalized to Vehicle (DMSO): Jurkat, Fig. 1A, in % (unit assumed)
# Method in brief: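 This CCK-8 viability assay used Jurkat T cells seeded at 6000 per well and grown in supplemented RPMI-1640, 100 μl per well. Antibiotic stocks in DMSO were diluted in medium to give 9 concentrations, and untreated wells received matching DMSO. After treatment, cells were incubated with 10% CCK-8 for 3 h. Results were normalized to vehicle, technical repeats were plotted as mean ± SEM, and IC50 values were derived.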
# [5] = Homo sapiens, PBMC, PBMCs, Fig. 1A, read-out: cell vialibity normalized to Vehicle (DMSO)
# [6] = Homo sapiens, PBMC, PBMCs, Fig. 1B, read-out: cell vialibity normalized to Vehicle (DMSO)
compound,measurement,setting,value
"CN(C)c1cc(NC(=O)CNC(C)(C)C)c(O)c2c1C[C@H]1C[C@H]3[C@H](N(C)C)C(O)=C(C(N)=O)C(=O)[C@@]3(O)C(O)=C1C2=O [Tigecycline, tigecycline]",inhibition of mitochondrial translation,[1],inhibited mitochondrial translation
same,toxicity to PBMCs in comparison with other bacterial protein synthesis inhibitors,[2]; Fig. 1B,greatest toxicity to PBMCs
same,viability at 0.137174 µM,"[2]; Homo sapiens, PBMC, PBMCs, dose 0.137174 μM, Fig. 1B, read-out: cell vialibity normalized to Vehicle (DMSO)",103%
same,viability at 0.411523 µM,[2]; [5],83.9%
same,viability at 0.411523 µM,[2]; [6],89.9%
same,viability at 1.23457 µM,[2]; [5],75.3%
same,viability at 1.23457 µM,[2]; [6],65.1%
same,viability at 3.7037 µM,"[2]; Homo sapiens, PBMC, PBMCs, dose 3.7037 μM, Fig. 1B, read-out: cell vialibity normalized to Vehicle (DMSO)",39.4%
same,viability at 11.1111 µM,"[2]; Homo sapiens, PBMC, PBMCs, dose 11.1111 μM, Fig. 1A, read-out: cell vialibity normalized to Vehicle (DMSO)",44.2%
same,viability at 33.3333 µM,[2]; [5],38.8%
same,viability at 33.3333 µM,[2]; [6],21.2%
same,viability at 100 µM,[2]; [5],20.8%
same,viability at 100 µM,[2]; [6],17.6%
same,IC50,"[2]; Homo sapiens, PBMC, PBMCs, after 3 days of treatment, read-out: IC50 (cell survival)",2.02 to 9.42 µM
same,HeLa cell survival,[3],relatively resistant
same,IC50,"[4]; Homo sapiens, Jurkat T cells, after 3 days of treatment, read-out: IC50 (cell survival)",2.94 to 3.08 µM
same,cell vialibity normalized to Vehicle (DMSO),[4]; dose 0.0457247 μM,109.956 and 111.249 and 111.849
same,cell vialibity normalized to Vehicle (DMSO),[4]; dose 0.137174 μM,103.553 and 105.77 and 101.862
same,cell vialibity normalized to Vehicle (DMSO),[4]; dose 0.411523 μM,97.7193 and 94.1885 and 95.1333
same,cell vialibity normalized to Vehicle (DMSO),[4]; dose 1.23457 μM,79.9123 and 80.3238 and 79.0851
same,cell vialibity normalized to Vehicle (DMSO),[4]; dose 3.7037 μM,38.8158 and 37.5675 and 38.722
same,cell vialibity normalized to Vehicle (DMSO),[4]; dose 11.1111 μM,18.2456 and 17.144 and 16.3775
same,cell vialibity normalized to Vehicle (DMSO),[4]; dose 33.3333 μM,11.1842 and 10.0457 and 10.0296
same,cell vialibity normalized to Vehicle (DMSO),[4]; dose 100 μM,4.123 and 3.321 and 4.232
same,cell vialibity normalized to Vehicle (DMSO),[4]; dose 300 μM,2.237 and 2.989 and 2.158
